Assays:
MCF7 (Breast) = experiment: In vitro tumor cell growth inhibition, MTS dye conversion assay, MCF7; format: cell-based; conditions: Homo sapiens, 4-6 days, read-out: IC50 (concentration associated with 50% inhibition of cell growth)
Experimental: (§1) The ability of the compounds of formula I to inhibit tumor cell growth was determined using the assay described in Cory A. H et al., Cancer Commun. 3(7):207-12, 1991.
(§2) Briefly, the assay is a […] method for determining the number of viable cells in proliferation or chemosensitivity assays.
(§3) Human tumor cell lines were propagated under sterile conditions in RPMI 1640 (CellGro) with […] fetal bovine serum (Gibco BRL), 2 mM L-glutamine, and sodium bicarbonate (complete medium). The cells were then incubated at 37° C. in HEPA-filtered Sterilcult CO2 tissue culture incubators (Forma) with 5% CO2 and 95% hymidity. Each cell line was subcultured weekly or biweekly. […]
(§4) The test compounds (100 μL), dissolved in DMSO (Sigma, cell culture grade) and diluted with complete medium, were added to 96-well plates containing attached cellular monolayers (5000 cells/well in 100 μL). […] Antiproliferative effects were assessed with the 3-(4,5-dimethylthiazol-2-yl)-5-(3-carboxymethoxyphenyl)-2-(4-sulfophenyl)-2H-tetrazolium, inner salt (MTS dye) conversion assay. […] The absorbance of formazan in each monolayer was measured at 490 nm on a Coulter microplate reader at 2 and 4 hours after the addition of the MTS solution.
(§5) Growth inhibition data are expressed as a percentage of absorbance detected in control wells and is proportional to the number of viable cells in the culture. […]

CCRF-CEM (Leukemia) = experiment: In vitro tumor cell growth inhibition, MTS dye conversion assay, CCRF-CEM; format: cell-based; conditions: Homo sapiens, 4-6 days, read-out: IC50 (concentration associated with 50% inhibition of cell growth)
Experimental: as §1, §2, §3, §4, §5

[1] = tested on: C6 (Central Nervous System); experiment: In vitro tumor cell growth inhibition, MTS dye conversion assay, C6; format: cell-based, Human; conditions: Rattus norvegicus, 4-6 days, read-out: IC50 (concentration associated with 50% inhibition of cell growth)
Experimental: as §1, §2, §3, §4, §5

EKVX (Lung) = experiment: In vitro tumor cell growth inhibition, MTS dye conversion assay, EKVX; format: cell-based; conditions: Homo sapiens, 4-6 days, read-out: IC50 (concentration associated with 50% inhibition of cell growth)
Experimental: as §1, §2, §3, §4, §5

[2] = tested on: SW-620 colon cancer cell line; experiment: In vitro tumor cell growth inhibition, MTS dye conversion assay, SW-620; format: cell-based, Human; conditions: 4-6 days
Experimental: as §1, §2, §3, §4, §5

[3] = tested on: OVCAR-5 ovarian cancer cell line; experiment: In vitro tumor cell growth inhibition, MTS dye conversion assay, OVCAR-5; format: cell-based, Human; conditions: Ovary, 4-6 days
Experimental: as §1, §2, §3, §4, §5

[4] = Homo sapiens, read-out: IC50 (concentration associated with 50% inhibition of cell growth)

Row | IC50 (MCF7 (Breast)) [µM] | IC50 (CCRF-CEM (Leukemia)) [µM] | IC50 [1] [µM] | IC50 (EKVX (Lung)) [µM] | IC50 [2, 4] [µM] | IC50 [3, 4] [µM] | IC50 (concentration associated with 50% inhibition of cell growth) [2] | IC50 (concentration associated with 50% inhibition of cell growth) [3] | SMILES
1 | 13 | 28 | 12 | 14 | 6 | 13 |  |  | Cc1cc(NC(=O)C(C#N)C(=O)C2CC2)ccc1C(F)(F)F (centres unmarked) [laflunimus, N-(3-Methyl-4trifluoromethylphenyl) 2-Cyano-2-(cyclopropylcarbonyl)acetamide]
2 |  |  |  |  |  |  | did not achieve IC50 effects | did not achieve IC50 effects | Cc1oncc1C(=O)Nc1ccc(C(F)(F)F)cc1 [lefunomide, 5-methylisoxazole-4-carboxylic acid-(4-trifluromethyl)-anilide, reference compound]
